Assay results taken from ChEMBL document CHEMBL1127718, “Quinoline-4-carboxylic acids as angiotensin II receptor antagonists” (Bioorg Med Chem Lett, 1994).

Assays:
[1] = target: T1, Type-1 angiotensin II receptor B (Rattus norvegicus, UniProt P29089); assay: Inhibition of [125I]Sar1,Ile8 angiotensin II binding to Angiotensin II receptor type 1 in rat adrenocortical membrane; type: cell membranes
T1 sequence (P29089 whole entry): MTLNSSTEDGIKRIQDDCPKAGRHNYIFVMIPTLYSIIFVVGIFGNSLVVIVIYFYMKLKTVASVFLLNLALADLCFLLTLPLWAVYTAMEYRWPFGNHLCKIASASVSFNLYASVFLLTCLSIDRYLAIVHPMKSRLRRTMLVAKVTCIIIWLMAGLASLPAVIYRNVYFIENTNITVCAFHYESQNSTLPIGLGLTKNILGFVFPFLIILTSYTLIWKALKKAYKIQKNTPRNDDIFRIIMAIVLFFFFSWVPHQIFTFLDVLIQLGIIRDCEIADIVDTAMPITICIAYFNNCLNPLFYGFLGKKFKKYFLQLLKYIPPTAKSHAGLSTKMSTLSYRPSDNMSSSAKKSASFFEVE

Oryctolagus cuniculus = species: Oryctolagus cuniculus; assay: In vitro functional antagonism was determined by ability of a single concentration of compound to block AII induced contractions in rabbit aortic smooth muscle strip; conditions: Aorta

| Compound | Ki [1] | Kb (Oryctolagus cuniculus) |
| --- | --- | --- |
| CCCc1nc2ccccc2c(C(=O)O)c1Oc1ccc(-c2ccccc2-c2nnn[nH]2)cc1 | 3.4 nM | 0.091 nM |
| CCc1nc2ccccc2c(C(=O)O)c1Oc1ccc(-c2ccccc2-c2nn[nH]n2)cc1 | 5.9 nM | 0.12 nM |
| Cc1nc2ccccc2c(C(=O)O)c1Oc1ccc(-c2ccccc2-c2nn[nH]n2)cc1 | 3.2 nM | 1.1 nM |
| O=C(O)c1c(Oc2ccc(-c3ccccc3-c3nnn[nH]3)cc2)c(C2CC2)nc2ccc(F)cc12 | 14 nM | 0.61 nM |
| COc1ccc2nc(C3CC3)c(Oc3ccc(-c4ccccc4-c4nn[nH]n4)cc3)c(C(=O)O)c2c1 | 33 nM | 0.2 nM |
| Cc1cccc2nc(C3CC3)c(Oc3ccc(-c4ccccc4-c4nnn[nH]4)cc3)c(C(=O)O)c12 | 12 nM | 0.4 nM |
| O=C(O)c1c(Oc2ccc(-c3ccccc3-c3nnn[nH]3)cc2)c(C2CC2)nc2cccnc12 | 2.1 nM | 0.67 nM |
| O=C(O)c1cccc2nc(C3CC3)c(Oc3ccc(-c4ccccc4-c4nn[nH]n4)cc3)c(C(=O)O)c12 | 120 nM | 2 nM |
| Cc1cccc2c(C(=O)O)c(Oc3ccc(-c4ccccc4-c4nnn[nH]4)cc3)c(C3CC3)nc12 | 1300 nM | 8.3 nM |
| O=C(O)c1c(Oc2ccc(-c3ccccc3-c3nn[nH]n3)cc2)c(C2CC2)nc2cc(Cl)ccc12 | 32 nM | 0.18 nM |
| O=C(O)c1c(Oc2ccc(-c3ccccc3-c3nnn[nH]3)cc2)c(C2CC2)nc2ncccc12 | 4.6 nM | 0.76 nM |
| O=C(O)c1c(Oc2ccc(-c3ccccc3-c3nn[nH]n3)cc2)c(C2CC2)nc2ccccc12 | 2.9 nM | 0.061 nM |
